Data on two compounds can be found in patent US20040219512A1, “Screening methods for cataractogenic risk” (Pfizer Inc, priority 2003, published 2004).

In one data set the test system is Rodent lens explants. The protocol: Rodent lenses were surgically removed and placed in tissue culture 199 (TC199) media (Invitrogen) supplemented with bicarbonate buffer with and without 10 mM TEA (Sigma Aldrich Co.). Darkfield photomicrographs of the cells were taken over a seven day period.
The subject of a further data set is SRA 01/04 cells. Particulars: concentrations of TEA greater than five mM.
The subject of data set [1] is chloride channels on the lens. To be noted: literature, Zhang, J. J. (1994); cited from earlier work.

Excerpt for SRA 01/04 cells: Preparation of Lens Epithelial Cell Line Culture Cells from the cell line, SRA 01/04 (deposited in the National Institute of Bioscience and Human-Technology Agency of Industrial Science and Technology, Ibaraki, Japan, international deposit No. FERM BP-5454) were thawed and plated on the bottom of a 25 square centimeter tissue culture flask (Falcon™ Flask, BD Biosciences, Lincoln Park, N.J.) and grown in high-glucose DMEM supplemented with 15% of FBS (Invitrogen, Grand Island, N.Y.) and 1% of penicillin/streptomysin (Invitrogen) at 37° C. in 5% CO2 and 95% air environment. The medium was changed twice a week. When confluence of 90-100% was reached (about 7-14 days), the medium was removed from the culture flask and the cells on the bottoms were washed with one ml of trypsin-EDTA (0.05% trypsin and EDTA, Invitrogen). […]
Approximately 15 μl of the cell suspension was pipetted onto a glass coverslip (Warner Instruments, Hamden, Conn., USA) placed on the transparent bottoms of a recording chamber mounted on an inverted differential interference contrast microscope (Eclipse TE300, Nikon, Tokyo, Japan). Whole cell currents were measured under the whole-cell configuration at room temperature (24-26° C.) using a multiclamp 700A dual channel multi-purpose microelectrode amplifier (Axon Instruments, Foster City, Calif., USA). […]

In the case of `CC[N+](CC)(CC)CC` [TEA, tetraethylammonium], in the data set with Rodent lens explants (10 mM TEA in TC199 media, photomicrographs over seven days), the “clouding of the lens compared with control” value is “increased clouding of the lens”. The “pixel intensity histogram of lens explants” value in the data set on Rodent lens explants (10 mM TEA, imaged after five days in culture) was “rightward shift in the intensity histogram”. The “additional current block at higher concentration” value in the data set with SRA 01/04 cells is “no significant additional current block”.
As for `CC/C(=C(\c1ccccc1)c1ccc(OCCN(C)C)cc1)c1ccccc1` [tamoxifen], in data set [1], the “effect on chloride channels on the lens” value is recorded as “blocks chloride channels on the lens”.
